Measurements as given in PubChem BioAssay (NCI).
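Each compound was tested at five concentrations against cells in 96-well plates for 48 hours. TGI is the concentration that stops growth completely.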

Legend:
Assay in all cases: DTP human tumour cell line panel, 48 h
[1] = test system: SK-MEL-2 melanoma
[2] = test system: HL-60(TB) leukemia
[3] = test system: A498 renal
[4] = test system: SK-MEL-5 melanoma
[5] = test system: OVCAR-8 ovarian
[6] = test system: NCI-H522 lung
[7] = test system: NCI-H23 lung
[8] = test system: K-562 leukemia
[9] = test system: U251 CNS
[10] = test system: NCI-H226 lung
[11] = test system: A549 NSCLC
[12] = test system: SNB-75 CNS
[13] = test system: LXFL 529 NSCLC
[14] = test system: SN12C renal
[15] = test system: CCRF-CEM leukemia
[16] = test system: SF-539 CNS
[17] = test system: MALME-3M melanoma
[18] = test system: CAKI-1 renal
[19] = test system: KM12 colon
[20] = test system: NCI-H460 lung
[21] = test system: KM20L2 colon
[22] = test system: HCT-116 colon
[23] = test system: SK-MEL-28 melanoma
[24] = test system: DMS 273 small cell lung
[25] = test system: SK-OV-3 ovarian
[26] = test system: OVCAR-4 ovarian
[27] = test system: SF-295 CNS
[28] = test system: LOX IMVI melanoma
[29] = test system: OVCAR-3 ovarian
[30] = test system: OVCAR-5 ovarian
[31] = test system: RPMI-8226 leukemia
[32] = test system: UACC-62 melanoma
[33] = test system: SF-268 CNS
[34] = test system: SNB-19 CNS
[35] = test system: IGROV1 ovarian
[36] = test system: EKVX NSCLC
[37] = test system: HOP-18 NSCLC
[38] = test system: ACHN renal
[39] = test system: HT29 colon
[40] = test system: M19-MEL melanoma
[41] = test system: DLD-1 colon
[42] = test system: M14 melanoma
[43] = test system: MOLT-4 leukemia
[44] = test system: TK-10 renal
[45] = test system: HOP-62 NSCLC
[46] = test system: HCT-15 colon
[47] = test system: SW-620 colon
[48] = test system: HOP-92 NSCLC
[49] = test system: 786-0 renal
[50] = test system: RXF 393 renal
[51] = test system: COLO 205 colon

For `COc1ccc(OC)c(/C=C(/C#N)c2ccccc2)c1`, the TGI [1] was 54.7 µM, the TGI [2] was 19.6 µM and the TGI [3] was 83.8 µM. The TGI [4] was 94.5 µM, the TGI [5] was > 100 µM and the TGI [6] was 45.5 µM. The TGI [7] was > 100 µM, the TGI [8] was 13.8 µM and the TGI [9] was > 100 µM. The TGI [10] was > 100 µM, the TGI [11] was > 100 µM and the TGI [12] was 32.8 µM. The TGI [13] was > 100 µM, the TGI [14] was > 100 µM and the TGI [15] was 62.1 µM. The TGI [16] was > 100 µM, the TGI [17] was > 100 µM and the TGI [18] was > 100 µM. For the same compound, the TGI [19] was > 100 µM, the TGI [20] was > 100 µM and the TGI [21] was > 100 µM. For the same compound, the TGI [22] was > 100 µM, the TGI [23] was > 100 µM and the TGI [24] was 24.5 µM. For the same compound, the TGI [25] was > 100 µM, the TGI [26] was 81.5 µM and the TGI [27] was > 100 µM. The TGI [28] was > 100 µM, the TGI [29] was 88.2 µM and the TGI [30] was > 100 µM. The TGI [31] was 60.6 µM, the TGI [32] was 35.8 µM and the TGI [33] was > 100 µM. For the same compound, the TGI [34] was > 100 µM, the TGI [35] was > 100 µM and the TGI [36] was > 100 µM. For the same compound, the TGI [37] was > 100 µM, the TGI [38] was > 100 µM and the TGI [39] was > 100 µM. The TGI [40] was > 100 µM, the TGI [41] was > 100 µM and the TGI [42] was > 100 µM. The TGI [43] was 57.7 µM, the TGI [44] was > 100 µM and the TGI [45] was > 100 µM. For the same compound, the TGI [46] was > 100 µM, the TGI [47] was > 100 µM and the TGI [48] was 70.2 µM. For the same compound, the TGI [49] was > 100 µM, the TGI [50] was 38.7 µM and the TGI [51] was > 100 µM.
